Results on 26 compounds are retold here after patent US9359352B2, “Substituted benzimidazoles as PI3 kinase inhibitors” (Intellikine LLC, priority 2010, dated 2016).

pIC50: −log10 of the molar value.

Holding throughout (type): biochemical
In assay [1] the target is T1, PI3K β (Homo sapiens, UniProt P42338).
T1 construct: purchased Upstate
In words: PI 3-Kinase HTRF inhibition assay, PI3K β. Particulars: in vitro.

In assay [2] the target is T2, PI3K δ (Homo sapiens, UniProt O00329).
T2 construct: purchased Upstate
Kind of assay: PI 3-Kinase HTRF inhibition assay, PI3K δ. The settings on record: in vitro; read-out: PI3K δ IC50.

The target of assay [3] is T3, PI3K γ (Homo sapiens, UniProt P48736).
T3 construct: purchased Upstate
In words: PI 3-Kinase HTRF inhibition assay, PI3K γ. The settings on record: in vitro. A general note: In TR-FRET formats the signal depends on donor and acceptor labels being close together.
Description: An exemplary system is PI 3-Kinase (human) HTRF™ Assay from Upstate. […] Briefly, the assay is a time resolved FRET assay that indirectly measures PIP3 product formed by the activity of a PI3-K. The kinase reaction is performed in a microtitre plate (e.g., a 384 well microtitre plate). The total reaction volume is approximately 20 ul per well. In the first step, each well receives 2 ul of test compound in 20% dimethylsulphoxide resulting in a 2% DMSO final concentration. Next, approximately 14.5 ul of a kinase/PIP2 mixture (diluted in 1× reaction buffer) is added per well for a final concentration of 0.25-0.3 ug/ml kinase and 10 μM PIP2. The plate is scaled and incubated for 15 minutes at room temperature. To start the reaction, 3.5 ul of ATP (diluted in 1× reaction buffer) is added per well for a final concentration of 10 μM ATP. The plate is sealed and incubated for 1 hour at room temperature. The reaction is stopped by adding 5 ul of Stop Solution per well and then 5 ul of Detection Mix is added per well. The plate is sealed, incubated for 1 hour at room temperature, and then read on an appropriate plate reader. Data is analyzed and IC50s are generated using GraphPad Prism 5.

Assay [4] has as its target T4, PI3K α (Homo sapiens, UniProt P42336).
T4 construct: purchased Upstate
In words: PI 3-Kinase HTRF inhibition assay, PI3K α. The settings on record: in vitro; read-out: PI3K α IC50.

T1 sequence (P42338 whole entry): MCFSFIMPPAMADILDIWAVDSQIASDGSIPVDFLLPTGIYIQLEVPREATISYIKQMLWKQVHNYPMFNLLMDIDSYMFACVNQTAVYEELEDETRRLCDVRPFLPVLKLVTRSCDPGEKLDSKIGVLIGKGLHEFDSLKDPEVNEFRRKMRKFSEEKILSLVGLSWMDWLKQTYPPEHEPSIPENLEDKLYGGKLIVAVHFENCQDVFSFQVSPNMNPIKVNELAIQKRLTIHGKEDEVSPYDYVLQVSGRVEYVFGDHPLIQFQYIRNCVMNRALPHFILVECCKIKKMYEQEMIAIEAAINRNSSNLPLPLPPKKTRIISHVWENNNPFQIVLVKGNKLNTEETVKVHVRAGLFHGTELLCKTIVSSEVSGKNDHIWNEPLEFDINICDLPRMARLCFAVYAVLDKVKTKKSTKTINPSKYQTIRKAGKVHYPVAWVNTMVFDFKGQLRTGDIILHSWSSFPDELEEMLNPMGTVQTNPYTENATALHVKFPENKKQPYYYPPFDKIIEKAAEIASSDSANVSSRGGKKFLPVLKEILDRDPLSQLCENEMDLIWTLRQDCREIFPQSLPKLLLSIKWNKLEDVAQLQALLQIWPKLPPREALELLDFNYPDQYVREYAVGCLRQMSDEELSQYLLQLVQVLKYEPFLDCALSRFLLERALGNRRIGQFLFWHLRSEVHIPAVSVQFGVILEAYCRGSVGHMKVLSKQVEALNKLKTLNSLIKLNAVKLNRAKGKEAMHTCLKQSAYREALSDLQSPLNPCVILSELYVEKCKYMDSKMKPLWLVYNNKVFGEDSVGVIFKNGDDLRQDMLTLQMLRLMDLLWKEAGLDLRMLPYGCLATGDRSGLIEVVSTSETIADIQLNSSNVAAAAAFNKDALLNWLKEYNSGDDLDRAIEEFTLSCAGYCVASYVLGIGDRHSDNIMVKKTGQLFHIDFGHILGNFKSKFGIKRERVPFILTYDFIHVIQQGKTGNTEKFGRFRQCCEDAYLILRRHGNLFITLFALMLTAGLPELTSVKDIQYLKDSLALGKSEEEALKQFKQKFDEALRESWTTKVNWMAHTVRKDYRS
T1 sequence (P27986 whole entry partner): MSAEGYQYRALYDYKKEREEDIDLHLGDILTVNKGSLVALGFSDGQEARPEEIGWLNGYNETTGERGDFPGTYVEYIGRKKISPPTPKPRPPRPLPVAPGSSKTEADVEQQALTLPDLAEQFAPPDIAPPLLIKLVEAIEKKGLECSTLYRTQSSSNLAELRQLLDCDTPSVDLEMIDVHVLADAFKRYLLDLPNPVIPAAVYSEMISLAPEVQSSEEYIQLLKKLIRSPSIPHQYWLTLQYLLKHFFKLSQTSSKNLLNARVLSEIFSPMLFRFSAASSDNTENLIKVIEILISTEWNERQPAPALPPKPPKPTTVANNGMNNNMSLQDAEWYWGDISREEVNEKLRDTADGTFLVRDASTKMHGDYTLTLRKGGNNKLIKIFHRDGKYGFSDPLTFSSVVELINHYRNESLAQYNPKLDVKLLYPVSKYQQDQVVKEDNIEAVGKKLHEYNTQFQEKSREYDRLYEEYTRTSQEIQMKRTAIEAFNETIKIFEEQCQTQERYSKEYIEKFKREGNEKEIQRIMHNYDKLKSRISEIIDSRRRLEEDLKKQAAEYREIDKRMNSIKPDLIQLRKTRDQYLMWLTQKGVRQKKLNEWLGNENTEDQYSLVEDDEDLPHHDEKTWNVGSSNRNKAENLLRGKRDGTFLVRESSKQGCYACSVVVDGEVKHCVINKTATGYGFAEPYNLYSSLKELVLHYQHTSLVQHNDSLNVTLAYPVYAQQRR
T3 sequence (P48736 whole entry): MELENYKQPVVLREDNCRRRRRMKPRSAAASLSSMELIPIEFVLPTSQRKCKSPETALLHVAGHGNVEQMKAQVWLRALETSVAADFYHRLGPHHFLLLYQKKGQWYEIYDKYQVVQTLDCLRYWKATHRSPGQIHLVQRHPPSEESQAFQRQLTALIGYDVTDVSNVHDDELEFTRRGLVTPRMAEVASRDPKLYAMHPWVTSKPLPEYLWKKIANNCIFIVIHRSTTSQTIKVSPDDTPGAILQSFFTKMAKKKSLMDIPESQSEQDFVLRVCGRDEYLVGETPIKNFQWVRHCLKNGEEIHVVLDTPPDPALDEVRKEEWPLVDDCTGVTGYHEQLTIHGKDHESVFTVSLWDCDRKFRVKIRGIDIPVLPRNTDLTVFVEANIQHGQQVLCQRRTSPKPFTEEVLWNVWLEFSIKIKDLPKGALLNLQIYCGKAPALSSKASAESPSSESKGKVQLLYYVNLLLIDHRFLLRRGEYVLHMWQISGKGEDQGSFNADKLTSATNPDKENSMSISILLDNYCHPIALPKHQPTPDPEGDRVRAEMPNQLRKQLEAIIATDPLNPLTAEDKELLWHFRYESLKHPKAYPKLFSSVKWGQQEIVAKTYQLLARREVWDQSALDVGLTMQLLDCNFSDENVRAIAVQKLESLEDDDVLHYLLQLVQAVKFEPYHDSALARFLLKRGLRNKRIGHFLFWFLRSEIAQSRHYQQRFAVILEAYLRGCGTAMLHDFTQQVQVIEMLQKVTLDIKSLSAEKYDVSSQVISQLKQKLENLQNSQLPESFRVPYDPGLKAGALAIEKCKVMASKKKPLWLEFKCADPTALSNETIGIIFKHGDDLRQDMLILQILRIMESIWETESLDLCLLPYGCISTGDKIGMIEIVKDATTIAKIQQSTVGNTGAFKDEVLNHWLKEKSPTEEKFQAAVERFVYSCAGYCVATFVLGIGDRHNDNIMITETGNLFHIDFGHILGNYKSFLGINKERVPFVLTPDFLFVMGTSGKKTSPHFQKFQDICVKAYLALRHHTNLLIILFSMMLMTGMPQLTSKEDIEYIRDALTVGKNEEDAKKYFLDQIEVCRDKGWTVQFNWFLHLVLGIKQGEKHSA
T4 sequence (P42336 whole entry): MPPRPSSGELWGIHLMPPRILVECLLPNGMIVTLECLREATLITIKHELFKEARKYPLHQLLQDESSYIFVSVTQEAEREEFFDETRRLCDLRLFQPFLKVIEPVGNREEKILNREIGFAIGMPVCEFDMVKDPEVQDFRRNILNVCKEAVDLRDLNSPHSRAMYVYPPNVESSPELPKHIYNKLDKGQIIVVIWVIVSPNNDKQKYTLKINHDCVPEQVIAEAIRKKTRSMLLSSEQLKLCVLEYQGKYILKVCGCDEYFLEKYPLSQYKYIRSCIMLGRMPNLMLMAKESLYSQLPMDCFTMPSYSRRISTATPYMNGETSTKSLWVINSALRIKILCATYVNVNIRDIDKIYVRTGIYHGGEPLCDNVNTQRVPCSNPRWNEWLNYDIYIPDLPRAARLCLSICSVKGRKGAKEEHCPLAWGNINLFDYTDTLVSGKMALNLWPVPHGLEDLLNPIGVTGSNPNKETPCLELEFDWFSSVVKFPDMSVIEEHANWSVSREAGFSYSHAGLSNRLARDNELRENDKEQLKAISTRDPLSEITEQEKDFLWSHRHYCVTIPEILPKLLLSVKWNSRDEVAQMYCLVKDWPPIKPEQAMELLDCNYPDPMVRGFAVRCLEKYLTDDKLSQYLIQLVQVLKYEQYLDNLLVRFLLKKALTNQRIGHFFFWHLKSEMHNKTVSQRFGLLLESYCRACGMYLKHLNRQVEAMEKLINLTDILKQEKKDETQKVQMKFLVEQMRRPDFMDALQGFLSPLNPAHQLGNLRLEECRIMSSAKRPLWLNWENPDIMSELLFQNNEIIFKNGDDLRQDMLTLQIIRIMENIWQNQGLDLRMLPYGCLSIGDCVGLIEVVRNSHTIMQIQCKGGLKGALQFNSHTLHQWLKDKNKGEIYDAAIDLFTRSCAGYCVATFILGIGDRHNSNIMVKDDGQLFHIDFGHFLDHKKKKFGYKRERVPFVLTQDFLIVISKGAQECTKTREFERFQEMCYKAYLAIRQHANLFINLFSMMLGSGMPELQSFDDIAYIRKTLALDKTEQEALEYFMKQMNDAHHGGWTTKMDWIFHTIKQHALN
T4 sequence (P27986 whole entry partner): as the sequence (P27986 whole entry partner) above
T2 sequence (O00329 whole entry): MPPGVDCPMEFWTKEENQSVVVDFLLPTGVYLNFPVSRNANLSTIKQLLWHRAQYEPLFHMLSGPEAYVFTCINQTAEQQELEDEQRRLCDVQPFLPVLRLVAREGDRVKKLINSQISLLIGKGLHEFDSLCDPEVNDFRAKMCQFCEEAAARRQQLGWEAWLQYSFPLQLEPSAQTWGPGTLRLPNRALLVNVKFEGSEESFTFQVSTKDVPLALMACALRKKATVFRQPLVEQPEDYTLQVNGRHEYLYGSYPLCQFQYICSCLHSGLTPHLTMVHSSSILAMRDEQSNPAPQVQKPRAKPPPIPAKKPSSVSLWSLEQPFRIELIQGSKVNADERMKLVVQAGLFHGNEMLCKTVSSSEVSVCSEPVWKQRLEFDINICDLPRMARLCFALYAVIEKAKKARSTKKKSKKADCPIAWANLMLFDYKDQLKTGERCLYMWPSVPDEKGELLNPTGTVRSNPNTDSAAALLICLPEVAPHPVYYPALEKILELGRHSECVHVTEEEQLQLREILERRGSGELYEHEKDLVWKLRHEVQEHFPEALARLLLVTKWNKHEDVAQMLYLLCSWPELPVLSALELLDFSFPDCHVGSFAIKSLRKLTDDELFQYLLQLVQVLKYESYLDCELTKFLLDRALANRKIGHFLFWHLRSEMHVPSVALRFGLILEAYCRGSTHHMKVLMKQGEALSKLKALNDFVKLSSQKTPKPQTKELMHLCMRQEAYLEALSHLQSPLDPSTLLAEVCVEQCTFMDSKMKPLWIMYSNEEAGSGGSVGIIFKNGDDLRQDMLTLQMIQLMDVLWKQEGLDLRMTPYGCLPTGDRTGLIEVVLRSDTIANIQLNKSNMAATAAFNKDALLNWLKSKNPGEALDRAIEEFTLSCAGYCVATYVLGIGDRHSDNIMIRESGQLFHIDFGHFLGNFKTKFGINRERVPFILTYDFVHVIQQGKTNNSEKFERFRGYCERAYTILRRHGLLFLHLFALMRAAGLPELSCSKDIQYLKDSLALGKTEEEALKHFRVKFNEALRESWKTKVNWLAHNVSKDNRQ
T2 sequence (P27986 whole entry partner): as the sequence (P27986 whole entry partner) above

Take `Nc1nc2cc(-c3ccc4ncc(N5CC(N6CCN(C7CC7)CC6)C5)nc4n3)ccc2o1` [Compound 69]: the pIC50 is > 5.00 in assay [1], > 5.00 in assay [2], > 5.00 in assay [3] and > 7.00 in assay [4].

For the compound `Nc1nc2cc(-c3ccc4ncc(C5=CCOCC5)nc4n3)ccc2o1` [Compound 11], the pIC50 in assay [1] is > 5.00; in assay [2], < 5.00; in assay [3] it was > 7.00; in assay [4], > 7.00.

`C[C@H]1CN(C2CN(c3cnc4ccc(-c5ccc6oc(N)nc6c5)nc4c3)C2)CCN1` [Compound 54]: the pIC50 in assay [1] is > 5.00; in assay [2] it was > 6.00; in assay [3], > 5.00; in assay [4] it was > 7.00.

With `C[C@H](N)C(=O)N1CCN(c2cnc3ccc(-c4ccc5oc(N)nc5c4)nc3c2)CC1` [Compound 38], the pIC50 in assay [1] is > 6.00; in assay [2], > 6.00; in assay [3], > 6.00; in assay [4] it was > 7.00.

Regarding `Nc1nc2cc(-c3ccc4ncc(N5CCC(O)CC5)nc4n3)ccc2o1` [Compound 45], the pIC50 was > 5.00 in assay [1], < 5.00 in assay [2], > 7.00 in assay [3] and > 7.00 in assay [4].

On to `Nc1nc2cc(-c3ccc4ncc(N5CC(N6CCN(C7CC7)CC6)C5)cc4n3)ccc2o1` [Compound 70], for which the negative-log IC50 (pIC50) in assay [1] was > 5.00; in assay [2], > 5.00; in assay [3], > 6.00; in assay [4], > 7.00.

In the case of `CC(C)(N)C(=O)N1CCN(c2cnc3ccc(-c4ccc5oc(N)nc5c4)nc3n2)CC1` [Compound 40], the pIC50 in assay [1] is > 5.00; in assay [2], > 5.00; in assay [3], > 5.00; in assay [4] it was > 7.00.

Take `C[C@@H]1CN(c2cnc3ccc(-c4ccc5oc(N)nc5c4)nc3n2)CCN1` [Compound 27]: the pIC50 in assay [1] is > 7.00; in assay [2], > 5.00; in assay [3], > 6.00; in assay [4], > 7.00.

Turning to `CCN1CCN(C2CN(c3cnc4ccc(-c5ccc6oc(N)nc6c5)nc4n3)C2)CC1` [Compound 76], the pIC50 in assay [1] is > 5.00; in assay [2] it was > 5.00; in assay [3], > 5.00; in assay [4], > 7.00.

In the case of `Nc1nc2cc(-c3ccc4ncc(N5CC(N6CCNCC6)C5)nc4n3)ccc2o1` [Compound 34], the pIC50 in assay [1] is < 5.00; in assay [2] it was < 5.00; in assay [3], < 5.00; in assay [4], > 6.00.

As for `Nc1nc2cc(-c3ccc4ncc(N5CC(N6CCOCC6)C5)cc4n3)ccc2o1` [Compound 53], the pIC50 was > 5.00 in assay [1], > 5.00 in assay [2], > 6.00 in assay [3] and > 7.00 in assay [4].

On to `C[C@@H](N)C(=O)N1CCN(c2cnc3ccc(-c4ccc5oc(N)nc5c4)nc3n2)CC1` [Compound 31], for which the pIC50 in assay [1] is > 5.00; in assay [2] it was > 5.00; in assay [3], > 6.00; in assay [4] it was > 7.00.

With `C[C@@H]1CN(C2CN(c3cnc4ccc(-c5ccc6nc(N)[nH]c6c5)nc4c3)C2)CCN1C` [Compound 86], the pIC50 in assay [1] is < 5.00; in assay [2], < 5.00; in assay [3], < 5.00; in assay [4], > 7.00.

As to `CCOC(=O)N1CCN(c2cnc3ccc(-c4ccc5oc(N)nc5c4)nc3n2)CC1` [Compound 6], the pIC50 was > 6.00 in assay [1], > 6.00 in assay [2], > 6.00 in assay [3] and > 7.00 in assay [4].

Turning to `CCN(CC)c1cnc2ccc(-c3ccc4oc(N)nc4c3)nc2n1` [Compound 26], the pIC50 is < 5.00 in assay [1], > 5.00 in assay [2], > 6.00 in assay [3] and > 6.00 in assay [4].

For the compound `Nc1nc2cc(-c3ccc4ncc(N5C6CCC5COC6)cc4n3)ccc2o1` [Compound 23], the pIC50 in assay [1] was > 5.00; in assay [2] it was < 5.00; in assay [3], > 7.00; in assay [4], > 7.00.

On to `C[C@H](N)C(=O)N1CCN(c2cnc3ccc(-c4ccc5oc(N)nc5c4)nc3n2)CC1` [Compound 30], for which the pIC50 in assay [1], in assay [2], in assay [3] and in assay [4] was > 7.00 each time.

Consider `Nc1nc2cc(-c3ccc4ncc(-c5cccnc5)nc4n3)ccc2o1` [Compound 3], for which the pIC50 in assay [1] was > 5.00; in assay [2], < 5.00; in assay [3], > 6.00; in assay [4], > 6.00.

In the case of `C[C@H]1CN(c2cnc3ccc(-c4ccc5oc(N)nc5c4)nc3c2)CCN1` [Compound 47], the pIC50 in assay [1] is > 7.00; in assay [2] it was > 5.00; in assay [3] it was > 6.00; in assay [4], > 7.00.

On to `CC(C)N1CCN(c2cnc3ccc(-c4ccc5oc(N)nc5c4)nc3n2)CC1` [Compound 32], for which the pIC50 in assay [1] is > 6.00; in assay [2], > 5.00; in assay [3], > 6.00; in assay [4], > 7.00.

Consider `Nc1nc2cc(-c3ccc4ncc(N5CCOCC5)cc4n3)ccc2o1` [Compound 22], for which the pIC50 was > 6.00 in assay [1], < 5.00 in assay [2], > 7.00 in assay [3] and > 7.00 in assay [4].

For the compound `CN1CCN(C2CN(c3cnc4ccc(-c5ccc6oc(N)nc6c5)nc4c3)C2)CC1=O` [Compound 64], the pIC50 in assay [1] is > 5.00; in assay [2], > 6.00; in assay [3] it was > 7.00; in assay [4], > 7.00.

Consider `C[C@@H]1COCCN1C1CN(c2cnc3ccc(-c4ccc5oc(N)nc5c4)nc3c2)C1` [Compound 66], for which the pIC50 was > 5.00 in assay [1], > 6.00 in assay [2], > 7.00 in assay [3] and > 7.00 in assay [4].

In the case of `C[C@@H]1CN(C2CN(c3cnc4ccc(-c5ccc6oc(N)nc6c5)nc4n3)C2)CCN1C` [Compound 25], the pIC50 in assay [1] was < 5.00; in assay [2], > 5.00; in assay [3], > 5.00; in assay [4], > 7.00.

Consider `CCOC(=O)N1CCN(c2cnc3ccc(-c4ccc5oc(N)nc5c4)nc3c2)CC1` [Compound 36], for which the pIC50 in assay [1] is > 5.00; in assay [2], < 5.00; in assay [3], > 7.00; in assay [4] it was > 7.00.

With `Nc1nc2cc(-c3ccc4ncc(N5CC(N6CCN(CC7CC7)CC6)C5)cc4n3)ccc2o1` [Compound 60], the pIC50 was > 5.00 in assay [1], > 6.00 in assay [2], > 5.00 in assay [3] and > 7.00 in assay [4].

As a reminder, the pIC50 is the IC50 on a negative log10 scale, so that one unit is a factor of ten.
